Paper PMC6413231, “o-Vanillin Derived Schiff Bases and Their Organotin(IV) Compounds: Synthesis, Structural Characterisation, In-Silico Studies and Cytotoxicity” (International Journal of Molecular Sciences, 2019)

Legend:
[1] = tested on: SJ-G2 (glioblastoma) cancer cells; test: MTT growth inhibition assay, SJ-G2; format: cell-based; conditions: for GI50: MTT, 72 h, ± standard error, read-out: Growth Inhibition Concentration, GI50
Procedure: (§1) The Schiff bases and their organotin(IV) compounds were screened for in vitro cytotoxicity against a panel of 12 cancer cell lines: EJ-28 (muscle invasive bladder), RT-112 (minimum-invasive bladder), HT29 (colon), U87 and SJ-G2 (glioblastoma), MCF-7 (breast), A2780 (ovarian), H460 (lung), A431 (skin), DU145 (prostate), BE2-C (neuroblastoma), MIA (pancreatic) and one normal breast cell line (MCF-10A) using the MTT metabolic assay (Figure 6). After 72 h of incubation, a dose-dependent […] effect towards the cancer cell lines was measured at very low micromolar (µM) concentrations of the compounds. The growth inhibition concentration of the Schiff bases and their organotin(IV) compounds required to inhibit 50% cell proliferation relative to the cells that were treated with DMSO (control) are given in Table 2. The stability of these compounds was assessed in DMSO as well as in a mixture of DMSO-H2O. The absorbance obtained from UV-vis spectroscopy analysis was monitored for 72 h, and an unchanged pattern in the spectra was indicative that the compounds were stable in both the solvent systems tested.
(§2) For HT29 (colon), U87 and SJ-G2 (glioblastoma), MCF-7 (breast), A2780 (ovarian), H460 (lung), A431 (skin), Du145 (prostate), BE2-C (neuroblastoma), MIA (pancreas) cell lines and one normal breast cell line, MCF-10A (normal breast), the MTT assays were performed using the following method:
(§3) Stock solutions were prepared as follows and stored at −20 °C: Trial compounds were stored as 10 mM solutions in DMSO. All cell lines were cultured in a humidified atmosphere 5% CO2 at 37 °C. The cancer cell lines were maintained in Dulbecco’s modified Eagle’s medium (DMEM) (Trace Biosciences) supplemented with 10% foetal bovine serum, 10 mM sodium bicarbonate, penicillin (100 IU/mL), streptomycin (100 μg/mL) and glutamine (4 mM). The normal cell line, MCF-10A was cultured in DMEM:F12 (1:1) cell culture media, 5% heat inactivated horse serum, supplemented with penicillin (50 IU/mL), streptomycin (50 μg/mL), 20mM Hepes, L-glutamine (2 mM), epidermal growth factor (20 ng/mL), hydrocortisone (500 ng/mL), cholera toxin (100 ng/mL) and insulin (10 μg/mL).
(§4) Cells in logarithmic growth were transferred to 96-well plates. Cytotoxicity was determined by plating cells in duplicate in 100 μL medium at a density of 2500–4000 cells/well. On day 0 (24 h after plating), when the cells were in logarithmic growth, 100 μL medium, with or without the test agent, was added to each well. After 72 h drug exposure, growth inhibitory effects were evaluated using the MTT (3-[4,5-dimethylthiazol-2-yl]-2,5-diphenyltetrazolium bromide) assay and absorbance read at 540 nm. Percentage growth inhibition was determined at a fixed drug concentration of 25 μM. A value of 100% was indicative of complete cell growth inhibition. Those analogues showing appreciable percentage growth inhibition underwent further dose-response analysis allowing for the calculation of a GI50 value. This value is the drug concentration at which cell growth is 50% inhibited based on the difference between the optical density values on day 0 and those at the end of drug exposure.

[2] = tested on: MCF-7 (breast) cancer cells; test: MTT growth inhibition assay, MCF-7; format: cell-based; conditions: MCF-7 cells, 72 h, ± standard error, read-out: Growth Inhibition Concentration, GI50
Procedure: as §1, §2, §3, §4

[3] = tested on: EJ-28 (muscle invasive bladder) cancer cells; test: MTT cytotoxicity assay, EJ-28; format: cell-based, human; conditions: EJ-28 cells, 72 h, ± standard error, read-out: Growth Inhibition Concentration, GI50
Procedure: as §1
(§5) The inhibitory effect of the synthesised compounds on the growth of bladder (EJ-28 and RT-112) cancer cells was evaluated by MTT assay. […] RT-112 and EJ-28, human bladder cancer cell lines used in this study (ATCC, Manassas, VA, USA) were cultured in RPMI-1640 (High glucose) medium supplemented with 10% fetal bovine serum containing 1% penicillin. The cells were cultured at 37 °C in a humidified atmosphere of 5% CO2 in air. Cells were seeded in 96-well plates at 6000 cells per well for 24 h, then they were treated with different concentrations of compounds for 72 h. The medium was subsequently removed and the wells were washed with 200 µL of phosphate buffer saline. Aliquots of 20 µL of 3-(4,5-dimethylthiazol-2-yl)-2,5-diphenyltetrazolium bromide (MTT) was added to each well and incubated for 4 h at 37 °C. Aliquots of 200 µL of media was then removed from each well and 200 µL of DMSO was added. Optical density (OD) was measured using an ELISA plate reader at 570 nm. Control wells (100% viability), containing media and DMSO, were included in all the experiments. All data points represented an average of triplicate assays. Cytotoxicity was expressed as CD50, i.e., the concentration that reduced the absorbance of treated cells by 50% with reference to the control (untreated cells).

[4] = tested on: A431 (skin) cancer cells; test: MTT growth inhibition assay, A431; format: cell-based; conditions: 72 h, ± standard error, read-out: Growth Inhibition Concentration, GI50
Procedure: as §1, §2, §3, §4

[5] = tested on: RT-112 (minimum-invasive bladder) cancer cells; test: MTT cytotoxicity assay, RT-112; format: cell-based, human; conditions: RT-112 cells, 72 h, ± standard error, read-out: Growth Inhibition Concentration, GI50
Procedure: as §1, §5

[6] = tested on: Du145 (prostate) cancer cells; test: MTT growth inhibition assay, Du145; format: cell-based; conditions: 72 h, ± standard error, read-out: Growth Inhibition Concentration, GI50
Procedure: as §1, §2, §3, §4

Diphenyltin(IV) [Ph2Sn(S4MoVa), Diphenyltin(IV) [S-4-Methybenzyl-β-N-(2-hydroxy-3-methoxybenzylmethylene) dithiocarbazate]]
GI50 [1]: 1000 ± 160 nM
GI50 [2]: 820 ± 140 nM
GI50 [3]: 3100 ± 370 nM
GI50 [4]: 1400 ± 380 nM
GI50 [5]: 1700 ± 490 nM
GI50 [6]: 1500 ± 310 nM

Diphenyltin(IV) [Ph2Sn(S2MoVa), Diphenyltin(IV) [S-2-Methybenzyl-β-N-(2-hydroxy-3-methoxybenzylmethylene) dithiocarbazate]]
greater activity than respective Schiff base ([1]; GI50 comparison): 3 fold
GI50 [1]: 840 ± 90 nM
GI50 [2]: 1400 ± 120 nM
GI50 [3]: 350 ± 50 nM
GI50 [4]: 2100 ± 90 nM
GI50 [5]: 310 ± 50 nM
GI50 [6]: 1700 ± 70 nM
